The subject of assay [1] is Pyricularia oryzae. In kind it is cell-based. The conditions noted are these: 125 ppm, day 7 after inoculation, absorption 405 nm, control = 100%.
In assay [2] the test system is Puccinia recondita. As to the kind of experiment: Curative activity against brown rust of wheat (greenhouse test). In kind it is in vivo. The conditions noted are these: 250 ppm, curative spray on wheat seedlings cv. Kanzler, 7 days; untreated control 90% infected. As for the experimental part:
The active compounds were prepared separately as a stock solution with 25 mg of active compound which was made up to 10 ml with a mixture of acetone and/or DMSO and the emulsifier Uniperol® EL (wetting agent having emulsifying and dispersing action based on ethoxylated alkylphenols) in a solvent/emulsifier volume ratio of 99 to 1. The solution was then made up to 100 ml with water. This stock solution was diluted to the active compound concentration stated below using the solvent/emulsifier/water mixture described.
Example No. 1—Curative activity against brown rust of wheat caused by Puccinia recondita
Leaves of potted wheat seedlings of the cultivar “Kanzler” were inoculated with a spore suspension of brown rust (Puccinia recondita). The pots were then placed in a chamber with high atmospheric humidity (90 to 95%) and 20 to 22° C. for 24 hours. During this time, the spores germinated and the germ tubes penetrated into the leaf tissue. The next day, the infected plants were sprayed to runoff point with the above-described active compound solution at the active compound concentration stated below. After the spray coating had dried on, the test plants were cultivated in a greenhouse at temperatures between 20 and 22° C. and at 65 to 70% relative atmospheric humidity for 7 days. The extent of the rust fungus development on the leaves was then determined.

`Cc1cc(C)n(-c2c(C)nc3ncnn3c2N2CCC(C)CC2)n1` [Compound C-1, 6-(3,5-Dimethylpyrazol-1-yl)-5-methyl-7-(4-methylpiperidin-1-yl)-[1,2,4]-triazolo[1,5-a]pyrimidin] registered a relative growth in assay [1] of 0%. In assay [2], this molecule gave an infection of 10%.

For the origin of these results see patent publication US20080300135A1, “5-Alkyl-7-Amino-6-Heteroaryl-1,2,4-Triazolo[1,5-A]Pyrimidine Compounds and Their Use for Controlling Harmful Fungi” (BASF Aktiengesellschaft, priority 2005, published 2008).
